113 compounds from the RepoRT retention time repository can be followed below.

Each structure is given as a SMILES string.

This series in a line: Agilent ZORBAX 300 SB-C18, 150 × 1 mm, 3.5 µm; A: water + 0.01% heptafluorobutyric acid; B: acetonitrile + 0.01% heptafluorobutyric acid; gradient (min/%B) 0/0 100/90. Conditions: stereoisomer not certain.
Consider `CCCCCCCCNCCCCCCCC`, for which the LC retention time worked out at 14.8 min.

With `Nc1ccc(N)cc1`, the LC retention time amounted to 4.51 min. On to `O=C1c2ccccc2CN1CCNC(=S)NC1CCCCC1`, for which the LC retention time turned out to be 12 min. The same measure for `CNc1ccccn1`: 6.54 min; for `O=C(Cn1ccc(=O)[nH]c1=O)NCCO`: 2.12 min. For `CC1C2=C(CC(C)(C)CC2=O)NC2=C1C(=O)CC(C)(C)C2`, the LC retention time was found to be 10.9 min. Take `COC(=O)C(N)CO` (stereo not drawn): the LC retention time turned out to be 4 min. Take `S=C1NCN(Cc2ccccc2)CN1`: the LC retention time is 8.28 min. For the compound `COC(=O)C1CCCNC1=O` (stereo not drawn), the LC retention time is 6.61 min.

For the compound `CC1=Nc2ccccc2Sc2ccccc21`, the LC retention time amounted to 14.5 min.

Consider `CCNC(=S)N1CCCC(C(N)=O)C1` (stereo not drawn), for which the LC retention time is 7.41 min.

As to `CCNCCN(CC)CC`, the LC retention time was found to be 6.96 min. For the compound `CCCOC(=O)C1CCCCN1` (stereo not drawn), the LC retention time worked out at 7.95 min. As for `CCN1CCN(Cc2cc(C)cc(C=O)c2C)CC1`, the LC retention time worked out at 9.37 min.

Take `CN1C2CCC1CC(OC(=O)C(CO)c1ccccc1)C2` (stereo not drawn): the LC retention time was 8.92 min. In the case of `CCNCC`, the LC retention time amounted to 5.17 min.

Consider `O=c1nc(N2CCOCC2)nc(N(c2ccccc2)c2ccccc2)[nH]1`, for which the LC retention time turned out to be 10.5 min. Take `CC(=O)Nc1nc(=S)n(-c2ccccc2)[nH]1`: the LC retention time amounted to 9.02 min. On to `CC1=NN(c2ccc(C)cc2)C(=O)C1C=O` (stereo not drawn), for which the LC retention time was determined as 8.94 min. Then `CCn1c2ccccc2c2ccccc21`, with 17.5 min; and `CCC(C)n1cc(C=C2NC(=O)NC2=O)c2ccccc21` (stereo not drawn), with 12.7 min; and `COCCCN`, with 5.72 min. Then `NCCCCCCCCCCN`, with 7.57 min. Take `CN(C)C(=O)Nc1ccccc1`: the LC retention time worked out at 8.37 min. Consider `c1cn[nH]c1`, for which the LC retention time amounted to 6.84 min.

`CC(N)=C1C(=O)C(=O)N(C)C1c1ccccc1` (stereo not drawn): the LC retention time is 8.68 min. `Cc1[nH]c(=S)[nH]c1-c1ccccc1`: the LC retention time was 9.06 min.

On to `C=CCC1(CC=C)CNCCN1`, for which the LC retention time was 7.33 min. For `CCN(CCCCOC(=O)c1ccc(OC)c(OC)c1)C(C)Cc1ccc(OC)cc1` (stereo not drawn), the LC retention time was determined as 11.9 min. As for `COc1ccc(C=NCCC2=CCCCC2)cc1OC`, the LC retention time came out at 10 min. Consider `CCCCCCCCN`, for which the LC retention time turned out to be 10.2 min. For the compound `NC(=O)NNC(=S)Nc1ccccc1`, the LC retention time worked out at 7.03 min. Take `COc1ccccc1NC(=O)C(c1ccccc1)c1ccccc1`: the LC retention time is 16.6 min. As to `O=C(Nc1ccccn1)c1cccc(N2C(=O)CCC2=O)c1`, the LC retention time was determined as 8.59 min. For the compound `CCSc1ccc2c(c1)N(CCCN1CCN(C)CC1)c1ccccc1S2`, the LC retention time amounted to 12.8 min. Then `Cc1cccn2cc(-c3cccs3)cc12`, with 17 min; and `CC(C)c1ccc(C=NNC(=O)C[n+]2ccccc2)cc1`, with 10.4 min; and `CN(C)CCCN(C)C`, with 7.19 min. Then `COc1ccc(C=Cc2nc(=O)c3ccccc3o2)cc1`, with 13.8 min; and `Cc1cc(=O)[nH]c(N=C(N)N2CCOCC2)n1`, with 6.89 min. Then `Nc1ccccc1OCCOc1ccccc1N`, with 8.96 min; and `CN(Cc1ccccc1)C(=S)Nc1cccnc1`, with 9.65 min. In the case of `Nc1ccc(C(O)(c2ccc(N)cc2)c2ccc(N)cc2)cc1`, the LC retention time worked out at 9.07 min. The same measure for `c1cncc(-c2ncc[nH]2)c1`: 6.65 min; for `CCc1ccncc1`: 6.94 min; for `Cc1ccc2[nH]ccc2c1`: 12.8 min.

Consider `CCNc1cc(C)ccc1O`, for which the LC retention time was found to be 7.6 min. In the case of `CC(C)=CCN1CC2(C)c3cc(O)ccc3CC1C2C` (stereo not drawn), the LC retention time amounted to 10.3 min. The same measure for `Cn1c(C(C)(C)C)nc(N)nc1=O`: 7.21 min; for `CC(C)n1c2ccccc2c2ccccc21`: 18.2 min; for `CCCCCC(=O)OC1(C(C)=O)CCC2C3CCC4=CC(=O)CCC4(C)C3CCC21C` (stereo not drawn): 21.2 min. Then `CNC(=O)c1cc2c(n(-c3ccccc3)c1=O)CCCC2=O`, with 9.8 min; and `CC(=O)Nc1cc(NC(C)=O)nc(NC(C)=O)n1`, with 7.21 min; and `CCC(=O)Nc1ccc(NCC(=O)Nc2ccc(C)cc2C)cc1`, with 11.1 min.

Take `c1cc(CCc2ccncc2)ccn1`: the LC retention time turned out to be 7.28 min. `CC(C)(C)c1ccc(C(=O)NC(CC(=O)O)c2ccc(C(C)(C)C)cc2)cc1` (stereo not drawn): the LC retention time was found to be 16.7 min. Then `CC(=O)c1[nH]c2c(c1C)C(=O)CCC2`, with 8.48 min. Then `CN(C)CCCN1c2ccccc2CCc2ccccc21`, with 11.6 min; and `O=C1CC(N2CCN(C(c3ccccc3)c3ccccc3)CC2)C(=O)N1c1cccc2ccccc12` (stereo not drawn), with 12.4 min; and `CN1CCC(=O)C2CCCCC21` (stereo not drawn), with 7.15 min. In the case of `COc1ccccc1-n1c(=O)n2n(c1=O)CCCC2`, the LC retention time is 9.12 min. Consider `CN(C)CCOC(c1ccccc1)c1ccccc1`, for which the LC retention time was 10.9 min. Then `CCCCOC(=O)CCc1n[nH]c(=O)[nH]c1=O`, with 9.57 min. Then `O=c1cnc(-c2ccccc2)c(-c2ccccc2)[nH]1`, with 11.1 min; and `NCC1CCCCC1`, with 8.08 min; and `COc1cccc(C2CC(=O)Nc3cc4c(cc32)OCO4)c1OC` (stereo not drawn), with 12 min. Consider `CCN(CC)CCNC(=O)c1ccccc1NC(=O)Nc1ccccc1`, for which the LC retention time was determined as 9.62 min. With `CCNC(=O)C(=O)NCCc1c[nH]c2ccccc12`, the LC retention time amounted to 10.8 min.

Take `CC1(c2ccccc2)OCOC1=CC[N+](C)(C)C` (stereo not drawn): the LC retention time worked out at 9.45 min.

For `Cc1nn(CC(=O)NC2CC(C)(C)NC(C)(C)C2)c(=O)c2ccccc12`, the LC retention time was found to be 8.35 min. Turning to `CC(C)(C)NCC(O)COc1cccc2c1CC(O)C(O)C2` (stereo not drawn), the LC retention time came to 8.31 min. For `CCCCC1(C)NC(=S)N(c2ccc(C)cc2)N1` (stereo not drawn), the LC retention time was determined as 15.1 min. The same measure for `COc1ccc(N2CC(C(=O)N3CCC(Cc4ccccc4)CC3)CC2=O)cc1` (stereo not drawn): 14.5 min; for `CCC(C)C(NC(C)=O)C(=O)O` (stereo not drawn): 7.75 min. Consider `S=C(NN=Cc1cccnc1)Nc1ccccc1`, for which the LC retention time stood at 9.9 min. The same measure for `CC(=O)c1[nH]c(C)c(C(=O)c2ccccc2)c1C`: 11.6 min. The same measure for `CCn1c2ccccc2c2cc(N)ccc21`: 9.76 min. Regarding `CCCCCC(N)=O`, the LC retention time was found to be 8.31 min.

Consider `S=C1NCN(C2CCCCC2)CN1`, for which the LC retention time came to 8.07 min. Take `Nc1cccc2c1C(=O)c1cccc(N)c1C2=O`: the LC retention time came to 12.6 min. For `COc1ccccc1OCC(=O)N1CCNC1=O`, the LC retention time is 8.89 min. With `CCOc1ccc(Cc2c(O)n(-c3ccc(CC)cc3)c(=O)[nH]c2=O)cc1`, the LC retention time stood at 14.4 min.

For the compound `CCc1ccc(C2CC(=O)N(N(C)C)C3=C2C(=O)CCC3)cc1` (stereo not drawn), the LC retention time stood at 15.1 min.

In the case of `Cc1cc(C)cc(N)c1`, the LC retention time was 8.29 min. Turning to `Cc1ccc(C(=O)NCc2ccco2)c(C)c1`, the LC retention time stood at 12.3 min. With `CN(C)c1ccc(N)cc1`, the LC retention time was determined as 6.86 min. As to `CCn1c(-c2ccccc2)nn(CN2CCCC2)c1=S`, the LC retention time stood at 11.8 min. With `CCCNC(=O)N1CCCC(C(N)=O)C1` (stereo not drawn), the LC retention time came to 6.98 min. With `CCCCCCN(C)CCCCCC`, the LC retention time came to 11.9 min. As for `Cc1ccc(NC(=O)c2ccc(N)cc2)cc1`, the LC retention time was 10.9 min.

As for `COC(=O)c1[nH]c2ccccc2c1-n1cccc1`, the LC retention time was found to be 14.3 min. Then `CCNc1ccccc1C`, with 8.47 min; and `O=C(O)C1CCCN(CCc2ccccc2)C1` (stereo not drawn), with 8.36 min; and `C(=Cc1cccs1)c1ccccn1`, with 9.18 min. The same measure for `c1ccc(-c2cccc(-c3ccccn3)n2)nc1`: 9.29 min. The same measure for `O=C(O)CCc1nn2c3ccccc3n(CC(=O)O)c2nc1=O`: 7.51 min.

On to `CC(=O)NC(Cc1c[nH]c2ccccc12)C(N)=O` (stereo not drawn), for which the LC retention time came to 7.8 min. For the compound `CN(C)c1ccc(C(=O)N2CCCC2)cc1`, the LC retention time turned out to be 10.4 min.

As to `Oc1cccc(-c2cc(-c3ccccc3)c3c(ccc4ncccc43)n2)c1`, the LC retention time was found to be 13.7 min. Then `Cc1[nH]c(C)c(C(=O)c2ccccc2)c1C`, with 12.5 min. Then `NCCCc1ccccn1`, with 6.8 min; and `Cc1cccc(-c2ccnc(=S)[nH]2)c1`, with 9.59 min. Then `CC(=O)Oc1ccccc1C=Cc1nc2ccccc2c(=O)o1`, with 14.8 min; and `O=C1NN=C(c2ccccc2)CC1c1c[nH]c2ccccc12` (stereo not drawn), with 12.3 min; and `NCC(=O)CCC(=O)O`, with 3.25 min. For `C=Cc1ccc(N)cc1`, the LC retention time turned out to be 8.31 min. With `CC(CC(=O)Nc1ccc(Nc2ccccc2)cc1)=NNC(=O)Cc1ccccc1`, the LC retention time worked out at 13.1 min. On to `O=c1[nH]c(-c2ccccc2)nc2ccccc12`, for which the LC retention time turned out to be 11 min. The same measure for `NCc1ccc2ncccc2c1`: 7.05 min; for `CSc1nnc(C)c(C)n1`: 8.89 min. Consider `CN1C(=O)CC(CN)c2ccccc21` (stereo not drawn), for which the LC retention time was found to be 7.58 min.

Regarding `c1ccc(N(c2ccccc2)c2ccccc2)cc1`, the LC retention time was found to be 20.2 min. On to `Cc1ccc2[nH]c(-c3ccccc3)cc2c1`, for which the LC retention time worked out at 16.8 min.
